Type in all cases: biochemical
Test [1] addresses T1, HCPTP-A (Homo sapiens, UniProt P24666).
T1 sequence (P24666 1-158): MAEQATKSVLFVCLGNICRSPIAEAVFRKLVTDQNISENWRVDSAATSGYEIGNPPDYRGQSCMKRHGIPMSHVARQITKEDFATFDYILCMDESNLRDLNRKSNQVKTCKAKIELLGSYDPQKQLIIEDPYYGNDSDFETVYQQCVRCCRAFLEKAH
Nature of the test: pNPP phosphatase inhibition assay, HCPTP-A.

Test [2] deals with T2, HCPTP-B (Homo sapiens, UniProt P24666).
T2 sequence (P24666 1-158 isoform P24666-2): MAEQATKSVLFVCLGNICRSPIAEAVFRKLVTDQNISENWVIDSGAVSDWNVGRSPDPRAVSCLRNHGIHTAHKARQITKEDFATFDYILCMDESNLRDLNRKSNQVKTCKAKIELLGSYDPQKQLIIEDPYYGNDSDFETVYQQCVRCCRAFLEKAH
The test can be described thus: pNPP phosphatase inhibition assay, HCPTP-B. Particulars: for inhibition at 100 µM: pH 5, read-out: inhibition of HCPTP-B activity.

For test [3], the target named is T3, HCPTP (Homo sapiens, UniProt P24666).
T3 sequence (P24666 1-158): T1 sequence (P24666 1-158)
Nature of the test: single concentration screen repeated with 0.01% Triton X-100. Particulars: 0.01% Triton X-100 and reducing agents.

The target in test [4] is T4, HCPTP (Homo sapiens, UniProt P24666).
T4 sequence (P24666 2-158): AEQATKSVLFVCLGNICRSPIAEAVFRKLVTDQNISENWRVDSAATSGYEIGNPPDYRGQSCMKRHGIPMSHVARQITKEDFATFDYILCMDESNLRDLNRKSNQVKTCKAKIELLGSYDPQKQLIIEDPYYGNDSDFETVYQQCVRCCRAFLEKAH
Nature of the test: pNPP single concentration screen, isoform not specified. As to conditions: pH 5, read-out: elevation of the activity of HCPTP.

Where [5] appears, read: pH 7, read-out: reduction of the activity of HCPTP-A, 100 μM compound, pH 7.
The mark [6] stands for this setting: pH 5, read-out: inhibition of HCPTP-A activity, 100 μM compound, pH 5.
Setting [7] is: IC50 HCPTP-B, pH 5 (Table I), pNPP substrate, 25 °C.
The mark [8] stands for this setting: IC50 HCPTP-A pH 5, pH 5 (Table II).
[9] abbreviates: IC50 HCPTP-A, pH 5 (Table I), pNPP substrate, 25 °C.
Where [10] appears, read: pH 5, read-out: inhibition of HCPTP-A activity.
[11] abbreviates: pH 7, read-out: reduction of the activity of HCPTP-A.
Setting [12] is: IC50 HCPTP-A pH 5 (dash class), pH 5 (Table II), dash entries.
Setting [13] is: read-out: IC50 HCPTP-A pH 7, pH 7 (Table II).

SMILES strings stand for the structures. Where two headings read alike, the source gives them in different places.

Usually IC50 stands for the midpoint of a concentration-inhibition curve.

On to `N=C(N)NC(=N)Nc1ccc(S(=O)(=O)O)cc1` [Compound 17580], for which, in test [1] (setting [5]), the inhibition at 100 µM was at least 10%.

Take `C[C@]12CC[C@@H]3c4ccc(OP(=O)(O)O)cc4CC[C@H]3[C@@H]1CCC2=O` [Compound 18320]: the inhibition at 100 µM in test [1] (setting [5]) is at least 10%.

Consider `N=C(Cc1ccccc1)NCC(=O)O` [Compound 27895], for which the inhibition at 100 µM in test [2], in test [1] (setting [6]) and in test [1] (setting [5]) was at least 10% in each case.

For `Cc1ncc(OP(=O)(O)O)c(C)c1O` [Compound 29870], the inhibition at 100 µM in test [2] and in test [1] (setting [6]) was at least 10% throughout.

On to `NC(Cc1ccccc1)P(=O)(O)O` (stereo not shown) [Compound 30080], for which the half-inhibitory concentration (IC50) is 139 µM in test [2] (setting [7]); 223 µM in test [1] (setting [8]); above 100 µM in test [1] (IC50 HCPTP-A pH 7 (dash class), pH 7 (Table II), dash entries); 223 µM in test [1] (setting [9]). The inhibition at 100 µM in test [2], in test [1] (setting [10]) and in test [1] (setting [11]) was at least 10% each time.

Consider `CCc1ccc(CCC(=O)O)nc1` [Compound 35989], for which the “reduction of the activity of HCPTP-A” value in test [1] (100 μM compound, pH 7) is listed as “at least 10%”.

With `Cn1c(=O)c2[nH]c(CCC(=O)O)nc2n(C)c1=O` [Compound 36534], the inhibition at 100 µM in test [1] (setting [5]) was at least 10%.

With `O=S(=O)(O)c1ccc2c(/N=N/c3c(O)ccc4ccccc34)cccc2c1` [Compound 45576], the IC50 in test [2] (setting [7]) was found to be 3.9 µM; in test [1] (setting [8]), 5.5 µM; in test [1] (setting [9]) it was 5.5 µM. The inhibition at 100 µM in test [2] and in test [1] (setting [6]) was at least 10% throughout. Moreover, in test [3], the “level of inhibition in the presence of detergent” value (from here on “level of inhibition”) was “maintained an approximately constant level of inhibition”.

As to `NC(Cc1c[nH]c2ccc([N+](=O)[O-])cc12)C(=O)O` (stereo not shown) [Compound 58612], the inhibition at 100 µM in test [1] (setting [5]) was at least 10%.

`NC(Cc1c[nH]c2cc([N+](=O)[O-])ccc12)C(=O)O` (stereo not shown) [Compound 65763]: in test [4], the activation at 100 µM is at least 10%. For the same compound, the figures for the IC50 in test [1] (setting [12]) and in test [1] (setting [13]) were above 100 µM and 51 µM, respectively.

For the compound `O=C(O)/C(Cc1ccnc2ccccc12)=N/O` [Compound 85359], the inhibition at 100 µM in test [2] and in test [1] (setting [6]) was at least 10% in each case. The IC50 is above 100 µM in test [1] (setting [12]) and 72 µM in test [1] (setting [13]).

On to `CC12CC(=O)C3C(CCC4=CC(=O)CCC43C)C1CC=C2CC(=O)O` (stereo not shown) [Compound 86008], for which the inhibition at 100 µM in test [1] (setting [5]) was at least 10%.

As for `CC1OC(OC2C(O)C(O)C(O)C(O)C2O)C(N)CC1NC(=N)C(=O)O` (stereo not shown) [Compound 100858], in test [1] (setting [5]), the inhibition at 100 µM is at least 10%.

In the case of `CC(=O)Nc1ccc(-c2ccc3[nH]c(=O)cc(C)c3c2)cc1` [Compound 109816], in test [4], the activation at 100 µM is at least 10%. Besides, the inhibition at 100 µM in test [1] (setting [5]) was at least 10%.

Turning to `C[C@]12CC[C@@H]3c4ccc(O)cc4CC[C@H]3[C@@H]1C/C(=N\O)[C@@H]2O` [Compound 112737], the inhibition at 100 µM in test [1] (setting [5]) was at least 10%.

Take `CC12CCC(=O)C=C1CCC1C2CCC2(C)C(C(=O)Cn3cnc4c(=S)nc[nH]c43)CCC12` (stereo not shown) [Compound 114792]: the inhibition at 100 µM in test [2] and in test [1] (setting [6]) was at least 10% in each case.

With `Nc1nc(N)c(N=Nc2ccc([As](=O)(O)O)c(O)c2)c(N)n1` [Compound 117281], in test [1] (setting [11]), the inhibition at 100 µM was at least 10%.

`O=C1C2=C(CC=CC2)C(=O)c2c(Nc3ccc(S(=O)(=O)O)cc3)ccc(Nc3ccccc3)c21` [Compound 128437]: the IC50 was 4.5 µM in test [2] (setting [7]), 5.5 µM in test [1] (setting [8]), 5.5 µM in test [1] (setting [9]) and 3.6 µM in test [1] (setting [13]). In addition, the inhibition at 100 µM in test [2] and in test [1] (setting [6]) was at least 10% each time. Also, the “level of inhibition” value in test [3] was “maintained an approximately constant level of inhibition”.

Turning to `CC[C@H]1CN2CCc3cc(OC)c(OC)cc3C2C[C@@H]1C[C@@H]1NCCc2c1[nH]c1ccc(O)cc21` (stereo partly shown) [Compound 131547], in test [1] (setting [11]), the inhibition at 100 µM was at least 10%.

For `NC(c1ccccc1)P(=O)(O)O` (stereo not shown) [Compound 133811], the inhibition at 100 µM in test [2] and in test [1] (setting [6]) was at least 10% each time.

As for `Nc1cncc(Nc2ccc(S(N)(=O)=O)cc2)n1` [Compound 135784], the inhibition at 100 µM in test [1] (setting [5]) is at least 10%.

For `O=C(O)CC1NCc2cc3ccccc3nc21` (stereo not shown) [Compound 141566], the inhibition at 100 µM in test [2] and in test [1] (setting [6]) was at least 10% throughout. The concentration for half-maximal inhibition (IC50) is above 100 µM in test [1] (setting [12]) and 4.8 µM in test [1] (IC50 HCPTP-A pH 7, pH 7 (Table II)).

For `Oc1cc(O)c2c(c1)OC(c1ccc(O)c(O)c1)C(O)C2c1c(O)cc(O)c2c1OC(c1ccc(O)c(O)c1)C(O)C2` (stereo not shown) [Compound 143099], in test [4], the activation at 100 µM was at least 10%.

Take `CC1CN(CC(N)C(=O)O)C(=O)NC1=O` (stereo not shown) [Compound 151831]: the inhibition at 100 µM in test [1] (setting [5]) was at least 10%.

Turning to `NC(Cc1cc(Br)c(O)c(Br)c1)C(=O)O` (stereo not shown) [Compound 210786], in test [4], the activation at 100 µM was at least 10%. Also, the half-maximal inhibitory concentration (IC50) in test [1] (setting [12]) was above 100 µM; in test [1] (setting [13]), 4.6 µM.

For `O=C(O)C1CSC2(CCN(c3ccccc3)CC2)N1` (stereo not shown) [Compound 319095], the “level of inhibition” value in test [3] is on record as “maintained an approximately constant level of inhibition”. Besides, the half-inhibitory concentration (IC50) in test [1] (setting [12]) was above 100 µM; in test [1] (setting [13]) it was 4 µM.

Consider `NC1CCCCC1P(=O)(O)O` (stereo not shown) [Compound 320308], for which the inhibition at 100 µM in test [2] and in test [1] (setting [10]) was at least 10% each time.

On to `C[S+](=N)([O-])CCP(=O)(O)O` (stereo not shown) [Compound 359098], for which the inhibition at 100 µM in test [1] (setting [11]) was at least 10%.

On to `Nc1nc(-c2ccc3ccccc3c2)cc(-c2cc(-c3ccc4ccccc4c3)nc(N)n2)n1` [Compound 371878], for which the inhibition at 100 µM in test [1] (setting [5]) was at least 10%.

As for `NC(Cc1ccc2oc3cc(=O)c4ccccc4c-3nc2c1)C(=O)O` (stereo not shown) [Compound 643735], the inhibition at 100 µM in test [2] and in test [1] (setting [6]) was at least 10% each time.

For `NC(c1c[nH]c2ccccc12)P(=O)(O)O` (stereo not shown) [Compound 669581], the inhibition at 100 µM in test [1] (setting [5]) is at least 10%.

As for `[O]=[V]([OH])([OH])[OH]` [orthovanadate, reference compound], the 50% inhibitory concentration (IC50) in test [2] (read-out: IC50 HCPTP-B, general phosphatase inhibitor, pH not stated) was determined as 61 µM; in test [1] (read-out: IC50 HCPTP-A, general phosphatase inhibitor, pH not stated) it was 11 µM.

(Values after publication PMC6031871 (Bioorganic & medicinal chemistry, 2010).)
